By IC50 is commonly meant the midpoint of a concentration-inhibition curve.

Here are results for 68 compounds from US8637557B2, “Aminothiazole derivative” (Taisho Pharmaceutical Co., Ltd, priority 2009, dated 2014).

In the first test the target is T1, human PI 3-kinase p120γ (Homo sapiens, UniProt P48736).
T1 construct: purchased Millipore Corporation
T1 sequence (P48736 whole entry): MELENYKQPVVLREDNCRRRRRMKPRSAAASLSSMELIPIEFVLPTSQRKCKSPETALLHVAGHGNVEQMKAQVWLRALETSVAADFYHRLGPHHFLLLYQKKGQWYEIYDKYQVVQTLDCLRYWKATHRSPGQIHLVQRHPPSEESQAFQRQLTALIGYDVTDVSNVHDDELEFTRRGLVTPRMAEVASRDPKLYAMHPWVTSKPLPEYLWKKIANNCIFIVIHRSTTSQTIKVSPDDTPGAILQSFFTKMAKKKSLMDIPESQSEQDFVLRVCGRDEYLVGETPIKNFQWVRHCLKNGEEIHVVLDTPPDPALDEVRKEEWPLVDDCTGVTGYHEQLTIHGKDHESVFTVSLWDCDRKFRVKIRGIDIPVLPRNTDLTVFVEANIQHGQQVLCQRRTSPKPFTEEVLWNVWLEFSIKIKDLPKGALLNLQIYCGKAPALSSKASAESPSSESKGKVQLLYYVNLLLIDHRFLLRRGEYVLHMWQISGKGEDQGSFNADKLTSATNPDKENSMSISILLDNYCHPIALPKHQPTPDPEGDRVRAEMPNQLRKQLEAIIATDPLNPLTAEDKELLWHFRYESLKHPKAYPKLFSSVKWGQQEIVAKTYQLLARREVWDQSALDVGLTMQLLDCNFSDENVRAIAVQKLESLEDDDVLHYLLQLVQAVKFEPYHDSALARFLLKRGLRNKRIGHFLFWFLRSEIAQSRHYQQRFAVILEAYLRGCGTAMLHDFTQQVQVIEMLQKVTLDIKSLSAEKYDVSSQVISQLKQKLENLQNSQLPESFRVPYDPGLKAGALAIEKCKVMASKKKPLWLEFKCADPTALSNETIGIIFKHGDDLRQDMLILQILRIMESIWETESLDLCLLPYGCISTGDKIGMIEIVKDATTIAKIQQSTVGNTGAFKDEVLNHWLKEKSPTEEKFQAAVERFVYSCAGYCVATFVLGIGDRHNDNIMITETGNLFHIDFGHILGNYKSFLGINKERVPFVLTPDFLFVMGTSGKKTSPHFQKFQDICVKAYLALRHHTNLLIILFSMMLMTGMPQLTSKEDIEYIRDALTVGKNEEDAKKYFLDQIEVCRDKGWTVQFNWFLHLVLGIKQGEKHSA
Put plainly: PI 3-kinase p120γ enzyme activity inhibition test. The following applies: ATP 10.0 μM, PIP2-PS 5.0 μM, 30° C., 2 hours; read-out: IC50 value. The test is classed as biochemical. How it is done:
Using human PI 3-kinase p120γ (manufactured by Millipore Corporation) and a mixed micellized product (hereinafter abbreviated as PIP2-PS) of the substrate thereof, L-a-Phosphatidyl-D-myo-inositol-4,5-bisphosphate (product of Calbiochem, hereinafter abbreviated as PIP2), and L-a-Phosphatidyl-L-Serine (manufactured by Sigma, hereinafter abbreviated as PS), the compound of the present invention was examined for the inhibitory action on PI3 Kinase p120γ enzyme activity (Km=8.9 μM for ATP, Km=4.0 μM for PIP2-PS).
PIP2-PS was prepared by mixing 500 μM of PIP2 and 2.5 nM of PS and sonicating the mixture for 40 minutes while ice cooling to cause micellization. ATP (final concentration 10.0 μM), [γ-^33P] ATP (final concentration 10 μCi/ml), PIP2-PS (final concentration 5.0 μM) and DMSO solutions of the test compound in different concentrations (compound final concentration 1.0×10^−5 to 2.4×10^−12 M, DMSO final concentration 0.1%) were added to PI 3-kinase p120γ, stirred and reacted at 30° C. for 2 hours. Using Phospholipid-Coated FlashPlate Microplates, 96-Well and Phospholipid FlashPlate Coating Buffer (both manufactured by PerkinElmer Co., Ltd.), PIP2-PS and phosphorylated PIP2-PS were allowed to be adsorbed to the well wall of the plate and collected. The well was washed twice with PBS (Phosphate-Buffered Saline) and dried. The radioactivity was measured using Top Count NXT (manufactured by PerkinElmer Co., Ltd.), whereby the phosphorylated amount (a) of PIP2-PS at the time of compound addition was calculated.
The same procedure was carried out in the absence of the test compound and the phosphorylated amount (b) of PIP2-PS was calculated. Further, the same procedure was carried out in the absence of both of the substrate and the test compound, and the PIP2-PS phosphorylated amount (c) of the background was calculated.
The PI3 Kinase p120γ enzyme activity suppression rate of the compound was calculated by the following formula. Suppression rate (%)=[1−(a−c)/(b−c)]×100
More specifically, using the suppression rate by the test compound of different concentrations, the IC50 value was calculated according to the dose-dependent inhibition curve analyzed by a data analysis software Origin (Lightstone Corp.) and used as the inhibitory activity index.
With `CC(=O)Nc1nc(C)c(-c2nc(-c3ccc(OCc4cccnc4)nc3)no2)s1` [Example 5], the concentration for half-maximal inhibition (IC50) stood at 7230 nM.
Regarding `CC(=O)Nc1nc(C)c(-c2nc(CC(O)CC(F)(F)F)no2)s1` (stereo not shown) [Example 67], the half-maximal inhibitory concentration (IC50) came to 428 nM.

The test is the same for the next values; noted with them: ATP 10.0 μM, PIP2-PS 5.0 μM, 30° C., 2 hours; read-out: PI3Kγ (IC50 value class).
For the compound `CC(=O)Nc1nc(C)c(-c2nc(-c3cccnc3)no2)s1` [Example 1, N-{4-methyl-5-[3-(pyridin-3-yl)-1,2,4-oxadiazol-5-yl]-1,3-thiazol-2-yl}acetamide], the IC50 is < 100 nM.
For the compound `CC(=O)Nc1nc(C)c(-c2nc(C(C)(C)C)no2)s1` [Example 2, N-[5-(3-tert-butyl-1,2,4-oxadiazol-5-yl)-4-methyl-1,3-thiazol-2-yl]acetamide], the IC50 is < 100 nM.
The same measure, in the same setting: then `CC(=O)Nc1nc(C)c(-c2nc(-c3cncnc3)no2)s1` [Example 3, N-{4-methyl-5-[3-(pyrimidin-5-yl)-1,2,4-oxadiazol-5-yl]-1,3-thiazol-2-yl}acetamide], with < 100 nM.
Still for that read-out and setting: the value for `COc1ccc(-c2noc(-c3sc(NC(C)=O)nc3C)n2)cn1` [Example 4] was < 100 nM.
Still for that read-out and setting: then `CC(=O)Nc1nc(C)c(-c2nc(-c3ccc(OCc4cccnc4)nc3)no2)s1` [Example 5], with 500 to 10000 nM; and `CC(=O)Nc1nc(C)c(-c2nc(-c3cccnc3C)no2)s1` [Example 6], with < 100 nM; and `CC(=O)Nc1nc(C)c(-c2nc(-c3ccccc3)no2)s1` [Example 7], with < 100 nM.
`CC(=O)Nc1nc(C)c(-c2nc(Cc3cccnc3)no2)s1` [Example 8]: the IC50 lay within 500 to 10000 nM.
The same measure, in the same setting: the value for `CC(=O)Nc1nc(C)c(-c2nc(C3CCCCC3)no2)s1` [Example 9] was < 100 nM; that for `CC(=O)Nc1nc(C)c(-c2nc(-c3ccccn3)no2)s1` [Example 10] was 100 to 500 nM; that for `CC(=O)Nc1nc(C)c(-c2nc(-c3ccncc3)no2)s1` [Example 11] was 500 to 10000 nM.
In the case of `CC(=O)Nc1nc(C)c(-c2nc(CCc3cccnc3)no2)s1` [Example 12], the 50% inhibitory concentration (IC50) lay within 100 to 500 nM.
The same measure, in the same setting: the value for `CC(=O)Nc1nc(C)c(-c2nc(CCO)no2)s1` [Example 13] was 100 to 500 nM.
Same read-out and setting: the value for `CC(=O)Nc1nc(C)c(-c2nc(-c3cnccc3C)no2)s1` [Example 14] was < 100 nM.
Same read-out and setting: the value for `CC(=O)Nc1nc(C)c(-c2nc(-c3cncc(C)c3)no2)s1` [Example 15] was < 100 nM.
For `COc1ncccc1-c1noc(-c2sc(NC(C)=O)nc2C)n1` [Example 16], the IC50 was < 100 nM.
Same read-out and setting: the value for `CC(=O)Nc1nc(C)c(-c2nc(-c3ccc(C)nc3)no2)s1` [Example 17] was < 100 nM; that for `CC(=O)Nc1nc(C)c(-c2nc(C3CCCC3)no2)s1` [Example 18] was < 100 nM.
For the compound `CC(=O)Nc1nc(C)c(-c2nc(CC(F)(F)F)no2)s1` [Example 19], the IC50 was < 100 nM.
As to `CC(=O)Nc1nc(C)c(-c2nc(CC(C)C)no2)s1` [Example 20], the concentration for half-maximal inhibition (IC50) was < 100 nM.
Still for that read-out and setting: then `CC(=O)Nc1nc(C)c(-c2nc(-c3cccc(CO)c3)no2)s1` [Example 21], with < 100 nM; and `COCCc1noc(-c2sc(NC(C)=O)nc2C)n1` [Example 22], with 100 to 500 nM.
Same read-out and setting: the value for `CC(=O)Nc1nc(C)c(-c2nc(-c3cnccn3)no2)s1` [Example 23] was < 100 nM; that for `CC(=O)Nc1nc(C)c(-c2nc(CS(C)(=O)=O)no2)s1` [Example 24] was < 100 nM.
Same read-out and setting: then `CC(=O)Nc1nc(C)c(-c2nc(-c3ccc(CO)cc3)no2)s1` [Example 25], with < 100 nM; and `CC(=O)Nc1nc(C)c(-c2nc(C3CCC3)no2)s1` [Example 26], with < 100 nM; and `CC(=O)Nc1nc(C)c(-c2nc(-c3cccc(O)c3)no2)s1` [Example 27], with < 100 nM.
Consider `CC(=O)Nc1nc(C)c(-c2nc(-c3cccc(CCO)c3)no2)s1` [Example 28], for which the IC50 is < 100 nM.
Turning to `CC(=O)Nc1nc(C)c(-c2nc(-c3ccccc3CO)no2)s1` [Example 29], the IC50 was < 100 nM.
The same measure, in the same setting: then `CC(=O)Nc1nc(C)c(-c2nc(CCCOC(C)=O)no2)s1` [Example 30], with 500 to 10000 nM; and `CC(=O)Nc1nc(C)c(-c2nc(CC(C)(C)CO)no2)s1` [Example 31, N-{5-[3-(3-hydroxy-2,2-dimethylpropyl)-1,2,4-oxadiazol-5-yl]-4-methyl-1,3-thiazol-2-yl}acetamide], with < 100 nM.
Still for that read-out and setting: the value for `CC(=O)Nc1nc(C)c(-c2nc(-c3cncc(O)c3)no2)s1` [Example 32] was < 100 nM; that for `CC(=O)Nc1nc(C)c(-c2nc(CCCO)no2)s1` [Example 33] was 100 to 500 nM; that for `CC(=O)Nc1nc(C)c(-c2nc(CC(C)(C)O)no2)s1` [Example 34] was < 100 nM.
On the same count and under the same terms, then `C=Cc1noc(-c2sc(NC(C)=O)nc2C)n1` [Example 35], with 100 to 500 nM; and `CC(=O)Nc1nc(C)c(-c2nc(Cc3cccc(CO)c3)no2)s1` [Example 36], with 500 to 10000 nM.
Turning to `COC(=O)c1cncc(-c2noc(-c3sc(NC(C)=O)nc3C)n2)c1` [Example 37], the half-maximal inhibitory concentration (IC50) is < 100 nM.
On to `CC(=O)Nc1nc(C)c(-c2nc(CC(C)O)no2)s1` (stereo not shown) [Example 38], for which the IC50 was 100 to 500 nM.
Turning to `CC(=O)Nc1nc(C)c(-c2nc(-c3ccc(=O)n(C)c3)no2)s1` [Example 39], the IC50 was 100 to 500 nM.
As for `CC(=O)Nc1nc(C)c(-c2nc(-c3ccc(=O)[nH]c3)no2)s1` [Example 40], the half-inhibitory concentration (IC50) is 100 to 500 nM.
Same read-out and setting: then `CC(=O)Nc1nc(C)c(-c2nc(CC3(C)COC3)no2)s1` [Example 41], with < 100 nM; and `CC(=O)Nc1nc(C)c(-c2nc(CC(C)(CO)CO)no2)s1` [Example 42], with < 100 nM; and `CC(=O)Nc1nc(C)c(-c2nc(CC(C)(C)CN)no2)s1` [Example 43], with 500 to 10000 nM.
Turning to `CC(=O)Nc1nc(C)c(-c2nc(CC(C)(C)CNS(C)(=O)=O)no2)s1` [Example 44], the half-inhibitory concentration (IC50) is < 100 nM.
Still for that read-out and setting: the value for `CC(=O)Nc1nc(C)c(-c2nc(CC3CCOCC3)no2)s1` [Example 45] was 100 to 500 nM; that for `CCC(CC)(CO)Cc1noc(-c2sc(NC(C)=O)nc2C)n1` [Example 46] was < 100 nM.
The same measure, in the same setting: then `CC(=O)Nc1nc(C)c(-c2nc(CCC(C)(C)O)no2)s1` [Example 47], with 100 to 500 nM; and `CC(=O)Nc1nc(C)c(-c2nc(CC3(CO)CC3)no2)s1` [Example 48], with < 100 nM.
For `CC(=O)Nc1nc(C)c(-c2nc(Cc3cccc(O)c3)no2)s1` [Example 49], the IC50 is 100 to 500 nM.
Still for that read-out and setting: the value for `COCc1noc(-c2sc(NC(C)=O)nc2C)n1` [Example 50] was 100 to 500 nM; that for `COCC(C)(C)Cc1noc(-c2sc(NC(C)=O)nc2C)n1` [Example 51] was < 100 nM.
Still for that read-out and setting: the value for `COC(Cc1noc(-c2sc(NC(C)=O)nc2C)n1)OC` [Example 52] was 500 to 10000 nM.
Same read-out and setting: the value for `CC(=O)Nc1nc(C)c(-c2nc(C3CCOCC3)no2)s1` [Example 54] was < 100 nM.
Regarding `CCOC(=O)c1noc(-c2sc(NC(C)=O)nc2C)n1` [Example 55, Ethyl-5-[2-(acetylamino)-4-methyl-1,3-thiazol-5-yl]-1,2,4-oxadiazol-3-carboxylate], the half-inhibitory concentration (IC50) fell in the range of 100 to 500 nM.
On the same count and under the same terms, then `CC(=O)Nc1nc(C)c(-c2nc(CC3(CO)COC3)no2)s1` [Example 57], with 100 to 500 nM; and `CCOC(C)(OCC)c1noc(-c2sc(NC(C)=O)nc2C)n1` [Example 58], with 500 to 10000 nM; and `CC(=O)Nc1nc(C)c(-c2nc(CCCCOC(C)=O)no2)s1` [Example 59], with 500 to 10000 nM.
Still for that read-out and setting: then `CC(=O)Nc1nc(C)c(-c2nc(C(C)=O)no2)s1` [Example 60], with < 100 nM; and `CC(=O)Nc1nc(C)c(-c2nc(CCCCO)no2)s1` [Example 61], with 100 to 500 nM.
Take `CC(=O)Nc1nc(C)c(-c2nc(C[C@H](C)CO)no2)s1` [Example 62]: the IC50 was < 100 nM.
The same measure, in the same setting: the value for `CC(=O)Nc1nc(C)c(-c2nc(C3CCOC3)no2)s1` (stereo not shown) [Example 63] was < 100 nM; that for `CC(=O)Nc1nc(C)c(-c2nc(C(C)(C)O)no2)s1` [Example 64] was < 100 nM; that for `CC(=O)Nc1nc(C)c(-c2nc(C(C)(C)CO)no2)s1` [Example 65] was < 100 nM.
Same read-out and setting: the value for `CC(=O)CCc1noc(-c2sc(NC(C)=O)nc2C)n1` [Example 66] was 100 to 500 nM; that for `CC(=O)Nc1nc(C)c(-c2nc(CC(O)CC(F)(F)F)no2)s1` (stereo not shown) [Example 67] was 100 to 500 nM; that for `CC(=O)Nc1nc(C)c(-c2nc(CC(C)(C)C)no2)s1` [Example 68] was < 100 nM.
In the case of `CC(=O)Nc1nc(C)c(-c2nc([C@H](O)C(C)(C)C)no2)s1` [Example 69], the half-inhibitory concentration (IC50) was < 100 nM.
Still for that read-out and setting: the value for `CC(=O)Nc1nc(C)c(-c2nc(C(N)=O)no2)s1` [Example 70] was 100 to 500 nM.
